One assay relates to BT-20 (breast cancer). Briefly: MTT cytotoxicity assay, BT-20. The following applies: Homo sapiens, 24-36 hours at 37° C., 0.1 to 250 μM. Format: cell-based. The procedure: (§1) Cytotoxicity of various compounds against tumor cells was performed using the MTT (3-[4,5-[…]]-2,5-diphenyl tetrazolium bromide) assay (Boehringer Mannheim Corp., Indianapolis, Ind.). Unless otherwise specified, all cell lines were obtained from the American Type Culture Collection (ATCC). Briefly, exponentially growing cells were seeded into a 96-well plate at a density of 2.5×10^4 cells/well and incubated for 36 hours at 37° C. prior to drug exposure. On the day of treatment, culture medium was carefully aspirated from the wells and replaced with fresh medium containing the indicated compound at concentrations ranging from 0.1 to 250 μM. Triplicate wells were used for each treatment.
(§2) Human leukemic cell lines (NALM-6, MOLT-3) glioblastoma cells (U373) and human breast tumor cell lines (BT20 and MDA-MB-231) were obtained from the American Type Culture Collection and maintained as a continuous cell line in Dulbecco's modified Eagles's medium supplemented with 10% fetal bovine serum and antibiotics.
(§3) The cells were incubated with the various compounds for 24-36 hours at 37° C. in a humidified 5% CO2 atmosphere. To each well, 10 μl of MTT (0.5 mg/ml final concentration) was added and the plates were incubated at 37° C. for 4 hours to allow MTT to form formazan crystals by reacting with metabolically active cells. The formazan crystals were solubilized overnight at 37° C. in a solution containing 10% SDS in 0.01 M HCl. The absorbence of each well was measured in a microplate reader (Labsystems) at 540 nm and a reference wavelength of […]. To translate the OD540 values into the number of live cells in each well, the OD540 values were compared to those on standard OD540 --versus--cell number curves generated for each cell line. The percent survival was calculated using the formula: [formula]
(§4) The IC50 values were calculated by non-linear regression analysis and are shown below in Tables 1-6.

Another assay relates to U-373 (glioblastoma). Briefly: MTT cytotoxicity assay, U-373. Format: cell-based. To be noted: Homo sapiens, U373 MG, 24-36 hours at 37° C., 0.1 to 250 μM. Here is the method:
as §1, §2, §3, §4

For assay [1], the system named is MDA-MB-231 breast cancer cells. Briefly: Adhesion assay to ECM proteins, MDA-MB-231. Format: cell-based, human. To be noted: laminin, fibronectin or type IV collagen; 16 hours (FIG. 6). Here is the method:
A human brain tumor cell line derived from an adult patient with glioblastoma, U-373 MG (Cat. #HTB-17) and MDA-MB-231 breast cancer cells (Cat. #HTB-26) were obtained from American Type Culture Collection (ATCC, Manassas, Va.) and maintained in liquid culture using DMEM supplemented with 10% fetal bovine serum and antibiotics. Fibroblast conditioned medium was used as a source of chemoattractant in vitro invasion assays. Conditioned medium was prepared as described previously (Albini, et al., 1987, Cancer Res., 47:3239-3245). […]
In adhesion assays, cells were centrifuged, washed twice with serum-free DMEM, counted and resuspended in serum-free DMEM to a final concentration of 2.5×10^5 cells/ml. […] The adherent fraction was quantitated using MTT (3-[4,5-dimethylthiazol-2-yl]-2,5-diphenyltetrazolium bromide) assays. […] The absorbance of each well was measured in a microplate reader (Labsystems) at […] and a reference wavelength of 690 nm. […] The adherent fraction of cells treated with HI-131 was compared to the DMSO-treated control cells and the percent adhesion relative to the control was determined.
Each treatment condition was evaluated in duplicate in 3 independent experiments. The IC50 values were calculated by non-linear regression analysis.

The source of these data is patent US6251882A, “Alkyl ketones as potent anti-cancer agents” (Parker Hughes Institute, priority 1999, dated 2001).

As for `CCCCCCCCCCCCSC[C@H](NC(C)=O)C(=O)CCl` [HI-131, N-Ac-S-dodecyl-Cys chloromethyl ketone], the IC50 with BT-20 (breast cancer) was found to be 10 µM; in the assay on U-373 (glioblastoma), 35.1 µM. Moreover, the “loss of adhesion, MDA-MB-231” value in assay [1] was “dose-dependent loss of adhesion”.
